In article PMC3581469, “Bombesin Analogue-Mediated Delivery Preferentially Enhances the Cytotoxicity of a Mitochondria-Disrupting Peptide in Tumor Cells” (PLoS ONE, 2013):
Where no end group is shown, it is not given here.

Assays:
[1] = tested on: normal cells (HSF, PrSC, SMC, MRC-5); assay type: cell-based, human; conditions: 1 h
Procedure: (§1) Cells were seeded at a density of 1×10^4 per well in a 96-well plate, were grown overnight and were co-incubated at 37°C for 1 h with increasing concentrations of the peptide in 100 µl RPMI 1640 supplemented with 2% FBS. Subsequently, the peptide solution was replaced by 100 µl fresh medium. To determine cell viability, 10 µl CCK-8 was added to the well, and the cultures were incubated for an additional 2–4 h. The absorbance was then measured at 450 nm (with a reference wavelength at 620 nm), and cell viability was calculated as the percentage of the value relative to the absorbance of the cells incubated without peptide. The IC50 values of the peptides were calculated from the respective cell viability curves. Simultaneously, the LIVE/DEAD BacLight bacterial viability kit was used to visualize the cytotoxicity of the peptides. Combined incubation with SYTO 9 (15 µM) and propidium iodide (PI, 2.5 µg/ml) stained the living cells fluorescent green and the dead cells fluorescent red due to their distinct cell membrane permeability.

[2] = tested on: tumor cells (PC-3, DU145, MCF-7, MDA-MB-435S); assay type: cell-based, human
Procedure: as §1

DU145 tumor cells = test: Live/Dead staining with SYTO 9 and PI; assay type: cell-based, human; conditions: 5 µM, 45 min, SYTO 9/PI
Procedure: as §1

DU145 cells [3] = test: FITC-Annexin V/PI staining, FACS analysis of apoptosis and necrosis; assay type: cell-based, human
Procedure: Phosphatidylserine exposed on the outer membrane reflects the early stages of apoptosis and can be detected by FITC-Annexin V and PI staining. The cells were detached and washed with medium. One-hundred and fifty thousand cells were suspended in 300 µl of RMPI 1640 supplemented with 10% FBS and treated with the peptide at the indicated concentration and time points. Then, the cells were subjected to dual staining with FITC-Annexin V and PI, according to the manual. The cells were observed under a fluorescence microscope and subjected to FACS analysis. Cells showing Annexin V−/PI-, Annexin V+/PI-, and Annexin V+/PI+ signals are considered to be living, early stage apoptotic, and either late stage apoptotic or necrotic, respectively. To assess DNA damage during apoptosis, the TUNEL assay was performed in accordance with the manufacturer’s instruction. Briefly, after treatment for 30 min-1 h with the peptide, cells were washed twice with PBS, fixed with 4% paraformaldehyde for 10–15 min at room temperature, permeabilized with 0.1% Triton X-100 for 2 min on ice, incubated in the reaction mixture and observed under a fluorescence microscope. FITC labeled nucleotides incorporated into the nuclei reflects DNA degradation. For investigating the activation of caspases, cells were preincubated with the Pan-caspase inhibitor, Z-VAD-FMK (100 µM), for 2 h before peptide treatment in the cytotoxicity assay. Immunofluorescence staining of caspase-3 was performed by using the Alexa Fluor 488-conjugated antibody against human cleaved caspase-3. The activation of caspase-3 was further verified by using a caspase-3 colorimetric assay kit (Genescript, Nanjing, China) with TNF-related apoptosis-inducing ligand (TRAIL) as a positive control. The activity of caspase-3 was presented as fold of peptide-treated cells vs untreated cells.

DU145 cells [4] = test: LDH release (Cytotox 96 non-radioactive cytotoxicity assay), necrosis; assay type: cell-based, human; conditions: 5 µM, 1 h
Procedure: Necrosis was evaluated with the Cytotox 96 non-radioactive cytotoxicity assay kit by detecting the release of lactate dehydrogenase (LDH) from necrotic cells. Ten-thousand cells were plated in a 96-well plate and treated with the peptide in 100 µl of RMPI 1640 supplemented with 2% FBS for 10 min-2 h, followed by LDH detection with 50 µl of culture supernatant from the treated cells, according to the manufacturer’s instruction. The LDH level was presented as the percentage relative to that of cells treated with 0.9% Triton X-100.

DU145 tumor xenografts = test: DU145 tumor xenograft model in BALB/c nude mice; assay type: in vivo, mouse
Procedure: (§2) All of the protocols used for in vivo experiments were approved by the University Animal Care and Use Committee. Four to six-week-old male BALB/c nu/nu mice were purchased from the University Animal Production Center. Seven million DU145 cells suspended in 200 µl PBS were subcutaneously injected into the left flank region of mice. On day 7–9 post inoculation, the mice were randomized into three groups (n = 5) and intraperitoneally (i.p.) received 15 mg/kg B28Bn(6–14), B28 or an equivalent volume of PBS once daily for 7 consecutive days. Alternatively, the mice intratumorally received 5 mg/kg drug once daily for 5 consecutive days. The tumor volume was calculated as length×width^2×0.5. At the end of i.p. therapy, the animals were sacrificed and the major organs were excised, paraffin-embedded, sectioned, and stained with hematoxylin/eosin (H&E) for the examination of histopathologic architecture. To evaluate the cytotoxicity on tumor cells in vivo, a single dose of 50 µg of peptide in 50 µl of PBS was injected into the tumor graft (200–300 mm^3), according to the method described previously. At 24 h post-injection, the animals were sacrificed, and the tumor tissues were routinely stained with H&E.

liver and kidney = conditions: mouse, in vivo, ip, 15 mg/kg
Procedure: as §2

DU145 and PC-3 cells = test: Cytotoxicity assay (CCK-8 cell viability); assay type: cell-based, human; conditions: 1 h; for cytotoxicity (in words): increasing concentrations, CCK-8
Procedure: as §1

## GGLRSLGRKILRAWKKYGNQWAVGHLM-NH2 [B28Bn(6–14)]
[1]
  IC50: 10.8 to 16.8 µM
[2]; 10 µM, 1 h, CCK-8
  loss of cell viability: over 90%
[2]; 1 h
  IC50: 1.7 to 3.5 µM
[2]; IC50 ratio versus unconjugated B28
  IC50 in tumor cells, times lower than B28: approximately 10 times
DU145 tumor cells
  dead cells (red fluorescence): over 90%
DU145 cells [3]; 2.5 µM, 10 min, 0 µM 0.24
  Annexin V+/PI+ cells (necrotic): 1.94%
DU145 cells [3]; 2.5 µM, 10 min, 0 µM 3.80
  early apoptotic cells (Annexin V+/PI-): 18.05%
DU145 cells [3]; 5 µM, 1 min
  Annexin V+/PI+ cells (necrotic): 8.84%
DU145 cells [3]; 5 µM, 1 min, 0 min 3.63
  early apoptotic cells (Annexin V+/PI-): 36.99%
DU145 cells [3]; 5 µM, 5 min
  Annexin V+/PI+ cells (necrotic): 16.25%
  early apoptotic cells (Annexin V+/PI-): 32.94%
DU145 cells [3]; 5 µM, 10 min
  Annexin V+/PI+ cells (necrotic): 15.30%
  early apoptotic cells (Annexin V+/PI-): 39.19%
DU145 cells [3]; 5 µM, 15 min
  Annexin V+/PI+ cells (necrotic): 36.88%
  early apoptotic cells (Annexin V+/PI-): 35.36%
DU145 cells [3]; 10 µM, 10 min
  Annexin V+/PI+ cells (necrotic): 29.93%
  early apoptotic cells (Annexin V+/PI-): 43.18%
DU145 cells [4]
  necrotic cells detected by LDH assay (percentage of max release with 0.9% Triton X-100): less than 10%
DU145 tumor xenografts; intraperitoneal 15 mg/kg once daily for 7 days, day 30, n = 5, mean±SD, PBS 421±87
  mean tumor volume: 179±42 mm^3
DU145 tumor xenografts; intratumoral 5 mg/kg once daily for 5 days, day 45, n = 5, mean±SD, PBS 1344±286
  mean tumor volume: 225±124 mm^3
Liver and kidney
  histological damage in liver and kidneys: no obvious histological damage

## CSCC[C@H](NC(=O)[C@H](CC(C)C)NC(=O)[C@H](Cc1c[nH]cn1)NC(=O)CNC(=O)[C@@H](NC(=O)[C@H](C)NC(=O)[C@H](Cc1c[nH]c2ccccc12)NC(=O)[C@H](CCC(N)=O)NC(=O)[C@@H](N)CC(N)=O)C(C)C)C(N)=O [Bn(6–14), reference compound]
DU145 and PC-3 cells
  cytotoxicity (in words): no obvious cytotoxicity

## GGLRSLGRKILRAWKKYGQRLGNQ-NH2 [B28Bn(2–7)]
DU145 and PC-3 cells; 10 µM peptide, CCK-8, RPMI 1640 with 2% FBS
  cytotoxicity / loss of cell viability: less than 40%
DU145 and PC-3 cells
  cytotoxicity (in words): moderate cytotoxicity
